Results on one molecule are retold here after patent US20200316100A1, “HALOALKYL FUCOSE-CONTAINING SELECTIN ANTAGONISTS” (GlycoMimetics, Inc., priority 2016, published 2020).

SMILES strings stand for the structures.

The target of this experiment is T1, E-selectin/Ig chimera (Homo sapiens, UniProt P16581).
T1 sequence (P16581 22-556): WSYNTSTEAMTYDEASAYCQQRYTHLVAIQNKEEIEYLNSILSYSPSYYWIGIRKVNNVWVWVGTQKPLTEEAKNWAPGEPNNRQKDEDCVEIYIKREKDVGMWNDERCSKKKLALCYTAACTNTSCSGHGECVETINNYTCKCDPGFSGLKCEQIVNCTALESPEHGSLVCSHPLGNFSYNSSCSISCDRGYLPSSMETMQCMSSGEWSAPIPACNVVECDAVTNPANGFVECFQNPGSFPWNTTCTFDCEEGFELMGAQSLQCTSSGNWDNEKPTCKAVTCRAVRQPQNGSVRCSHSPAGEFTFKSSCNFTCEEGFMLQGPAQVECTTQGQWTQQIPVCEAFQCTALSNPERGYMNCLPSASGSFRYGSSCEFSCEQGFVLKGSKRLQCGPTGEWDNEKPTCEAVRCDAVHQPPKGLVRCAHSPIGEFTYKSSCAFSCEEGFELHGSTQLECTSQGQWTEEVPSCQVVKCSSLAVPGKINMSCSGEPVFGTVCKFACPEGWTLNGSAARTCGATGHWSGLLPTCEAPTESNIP
The experiment in a line: E-Selectin Activity - Alternative Binding Assay (inhibition of sLea binding to immobilized E-selectin/Ig chimera). The note with it: concentration required to inhibit binding of biotinylated sLea polyacrylamide/streptavidin-HRP conjugate to immobilized E-selectin by 50%; absorbance 450 nm. The protocol:
E-selectin/Ig chimera was immobilized in 96 well microtiter plates by incubation at 37° C. for 2 hours. To reduce nonspecific binding, bovine serum albumin was added to each well and incubated at room temperature for 2 hours. The plate was washed and serial dilutions of the test compounds were added to the wells in the presence of conjugates of biotinylated, sLe^a polyacrylamide with streptavidin/horseradish peroxidase and incubated for 2 hours at room temperature.
To determine the amount of sLe^a hound to immobilized E-selectin after washing, the peroxidase substrate, 3,3′,5,5′ tetrametbylbenzidine (TMB) was added. After 3 minutes, the enzyme reaction was stopped by the addition of H3PO4, and the absorbance of light at a wavelength of 450 nm was determined.

With `CCC1CCCC(OC2OC(CO)C(O)C(OC(CC3CCCCC3)C(=O)O)C2OC(=O)c2ccccc2)C1OC1OC(C(F)(F)F)C(O)C(O)C1O` [Compound 75, sodium (5)-2-(((2R,3R,4S,5S,6R)-3-(benzoyloxy)-2-(((1R,2R,3S)-3-ethyl-2-(((2R,3S,4R,5S,6R)-3,4,5-trihydroxy-6-(trifluoromethyl)tetrahydro-2H-pyran-2-yl)oxy)cyclohexypoxy)-5-hydroxy-6-(hydroxymethyl)tetrahydro-2H-pyran-4-yl)oxy)-3-cyclohexylpropanoate], the IC50 turned out to be 700 nM.
